# Data: patent publication US6525089B1, “Pharmaceutical composition containing decursin” (Binex Co., Ltd., priority 1998, dated 2003)
# Key:
# U-937 cells [1] = test: Phagocytosis test; format: cell-based, human; details: 1 × 10^−7M, incubated 4 days
# Description: (§1) U-937 cells were plated on a cell culture dish at a concentration of 2×10^5 cells/ml in a medium containing 10^−7M decursin and incubated in a 5% CO2 incubator at 37° C.
# In the phagocytosis test, 10^6 cells were well stirred and pelleted by centrifugation at 2000 rpm for 5 minutes. 1 ml of 0.2% serum free medium solution in polystyrene particle were added to the pellets, swayed and incubated at 37° C. for 4 hours. After being washed with phosphate buffered saline (PBS) three times, cell pellets were harvested and then about 200 μl of DPBS was added. The solution was lightly swayed and checked under a microscope to observe a minimum number of 200 cells. The number of cells containing the particles was calculated by percentage.
# The results of phagocytosis test designed to assess the functional change according to differentiation of U-937 cells was shown in the following Table 8.
# U-937 cells [2] = test: NBT reduction test; format: cell-based, human; details: 1 × 10^−7M, incubated 4 days
# Description: as §1
# In the nitrobluetetrazolium (NBT) reduction test, cell solution (about 1×10^6 cells/ml) was well stirred and pelleted by centrifugation at 2000 rpm for 5 minutes. The pellets were suspended in 0.5 ml of medium, followed by the addition of a mixing solution (0.5 ml) containing 10^−6M formyl-methionine leucine phenylalanine (fMLP) and NBT 1.0 mg/DPBSml (1:9). The mixture was incubated at 37° C. for 30 minutes. The reaction was stopped in ice bath and centrifuged at 2000 rpm for 5 minutes. The supernatant was removed and then 200 μl of DPBS was added. The solution was lightly swayed and checked under a microscope to observe a minimum number of 200 cells. The number of NBT (+) cells was calculated by percentage.
# The differentiation was investigated by using the fact that the differentiated leukocyte cells may generate superoxide anion by stimulation. […] The cultured mixture, which was reacted with superoxide, was reduced to form a precipitate. Then NBT was added to the precipitate (Table 7).
# U-937 cells [3] = test: Esterase activity test: naphthol AS-D chloroacetate esterase; format: cell-based, human; details: percentage of cells showing activity
# Description: To determine naphthol AS-D chloroacetate esterase activity, the cultured solution of U-937 cells was pelleted by centrifugation at 2000 rpm for 5 minutes, followed by the addition of 100 μl PBS to prepare a cell-concentrated solution. A drop of the cell solution was put on a slide glass and dried for more than 1 hour. Then 40 ml of deionized water was preheated at 37° C. 1 ml of […] solution was mixed with 1 ml of Fast Red Violet LB base solution and left for 2 minutes. The mixture was added to 40 ml of preheated deionized water. After the addition of 5 ml of TRIZMAL TM 6.3) buffer solution (Sigma Co. T-3128) and 1 ml of naphthol AS-D chloroacetate solution, the resulting solution, which was turned to red color was poured on a petri dish. The cells on a slide glass were fixed with citrate-acetone-formaldehyde solution, (CAF solution) at room temperature. The cells were soaked in the previously prepared solution and incubated at 37° C. for 30 minutes at a dark place. The cells were completely washed with deionized water for more than 2 minutes and counterstained with hematoxylin solution for 2 minutes, washed with tap water and dried in the air. After completely dried, the cells were observed under a microscope to calculate the reddish cell numbers by percentage.
# (§2) Thus it was considered that the cells were differentiated into macrophage.like cells by the action of decursin.
# U-937 cells [4] = test: Esterase activity test: α-naphthyl acetate esterase; format: cell-based, human; details: percentage of cells showing activity
# Description: To determine α-naphthyl acetate esterase activity in the esterase activity test, the cultured solution of U-937 cells was pelleted by centrifugation at 2000 rpm for 5 minutes, followed by the addition of 100 μl PBS to prepare a cell-concentrated solution. A drop of the cell solution was put on a slide glass and dried for more than 1 hour. Then 40 ml of deionized water was preheated at 37° C. 1 ml of […] solution was mixed with 1 ml of Fast Blue BB base solution and left for 2 minutes. The mixture, being turned to yellow color with thick brown, was added to 40 ml of the preheated deionized water. After the addition of 5 ml of TRIZMAL TM 7.6 buffer solution (Sigma Co. 870-2) and 1 ml of α-naphthyl acetate solution, the resulting solution, which was turned to green color, was poured into a petri dish. The cells on a slide glass were fixed with citrate-acetone-formaldehyde solution (CAF solution) at room temperature. The cells were soaked in the previously prepared solution and incubated at 37° C. for 30 minutes at a dark place. The cells were completely washed with deionized water for more than 2 minutes and counterstained with hematoxylin solution for 2 minutes, washed with tap water and dried in the air. After completely dried, the cells were observed under a microscope to determine the blackish cell numbers.
# as §2
# U-937 cells [5] = test: Growth inhibition test (trypan blue exclusion); format: cell-based, human; details: 4 days (96 hours)
# Description: U-937 cells, optioned from Korea Cell Line Bank, was cultured in RPMI 1640 medium (Sigma Co., R-6504) supplemented with 10% fetal bovine serum (FBS). The medium was exchanged every 5 day by 70%. U-937 cells were inoculated into a cell culture dish at concentration of 2×10^5 cells/ml. Then decursin added into the dish at concentration of 10^−8˜10^−6M, then the cells were cultured for 4 days. Trypan blue exclusion test was performed to determine the number of live cells using a hemacytometer, and the percentage of cancer-cell growth inhibition was calculated. Then, the differentiation was induced by treating with 10^−2M diluted ethanol solution containing various amount of decursin in the medium.
# ICR mice [6] = test: BUN and MDA in blood and MDA in renal tissue, alloxan-treated mice; format: in vivo; details: alloxan 75 mg/kg i.v., saline for 10 days
# Description: (§3) 2 days after ICR mice were given alloxan (75 mg/kg, i.v.), their glucose levels at fasting were measured to select high-glucose mice. The high-glucose mice were divided into two groups; physiological saline solution was given to one group, while decursin was orally administered to the other group at a dose of 50 mg/kg for 10 days. The alloxan-free group was also orally given physiological saline solution for 10 days. The body weighs were checked periodically, together with urinary tests. To isolate their sera and kidney, mice were slightly anesthetized with ether and their abdomens were dissected. The blood samples were collected from heart to isolate the sera. The kidney was perfused with 0.9% NaCl and isolated after removal of the blood. Then the weight of right kidney was measured. Further, to measure the protein amount from the kidney tissues, these tissues were assayed according to the Bradford method using Bio-Rad protein assay kit in the presence of bovine serum albumin as a reference standard. To measure the MDA in the kidney tissues, 0.4 ml of 10% sodium dodecylsulfate was added to 0.5 ml of 10% kidney-tissue homogenization solution and left in water bath at 37° C. for 30 minutes; With the subsequent addition of 0.1N-HCl (2 ml) and 0.67% TBA (1 ml), the mixture was voltexed and left in boiling water bath for 30 minutes. The mixture was further cooled in ice bath for 2˜3 minutes to stop the reaction. Then 2 ml of n-butanol was added to the mixture, stirred well and centrifuged at 3000 rpm for 10 minutes. The supernatant was collected to measure the absorbance at 532 nm. 10 μg/ml tetraethoxypropane (TEP) was employed as a reference standard. To measure the MDA in sera, 0.8% thiobarbituric acid (TBA) was added to 0.5 ml of sera and left in boiling water bath for 30 minutes. The mixture was further cooled in ice bath for 2˜3 minutes to stop the reaction. The supernatant was collected to measure the absorbance at 532 nm. 10 μg/ml TEP was employed as a reference standard.
# Mice were orally given decursin at a dose of 50 mg/kg for 10 days continuously. Then various parameters such as BUN and MDA in the blood as a marker of renal failure were measured, together with urinary test. When […] (table 4), the BUN value of single alloxan-treated group, 17.4±3.7 mg/dl was recovered to the normal level (4.8±0.6 mg/dl) by the treatment of decursin. The MDA value of single alloxan-treated group, 0.51±0.07, was reduced to 0.36±0.03 by the treatment of decursin, which was similar to a normal control group. Thus it was noted that the damage in the kidney was completely recovered. Since the reduction of both MDA values in the blood and kidney tissues may be clinically reasonable and desirable, the MDA value in the kidney tissues was measured. As a result, the MDA value in the kidney tissues of a single alloxan-treated group, 13.24±5.93, was reduced to 5.63±0.99 by the treatment of decursin, which was lower than that of normal control group (8.44±1.01).
# ICR mice [7] = test: Urinary test, alloxan-treated mice; format: in vivo; details: Alloxan group
# Description: as §3
structure (smiles),measurement,setting,value
"C=C1CC[C@H](O)C/C1=C/C=C1\CCC[C@]2(C)[C@@H]([C@H](C)CCCC(C)C)CC[C@@H]12 [Vitamin D3, reference compound]",Phagocytosis test: cells showing phagocytosis activity,U-937 cells [1],25.8 ± 1.3%
same,Phagocytosis test: cells showing phagocytosis activity,U-937 cells [1]; listed as vitamin D3,25.8%
same,NBT reduction test: positive cells,U-937 cells [2],39.0 ± 2.1%
same,NBT reduction test: positive cells,U-937 cells [2]; listed as vitamin D3,39%
same,Naphtol AS-D chloroacetate esterase Activity (%),U-937 cells [3],0.0%
same,α-Naphtylacetate esterase Activity (%),U-937 cells [4],79.3 ± 4.5%
same,α-Naphtylacetate esterase Activity (%),U-937 cells [4]; listed as vitamin D3,80%
same,Growth inhibition rate (%),U-937 cells [5]; 1 × 10^−6M,54.0 ± 6.7%
same,Growth inhibition rate (%),U-937 cells [5]; 1 × 10^−7M,42.5 ± 6.4%
same,Growth inhibition rate (%),U-937 cells [5]; 1 × 10^−8M,26.0 ± 5.7%
same,Growth inhibition rate (%),U-937 cells [5]; 5 × 10^−7M,48.0 ± 6.0%
same,Growth inhibition rate (%),U-937 cells [5]; 5 × 10^−8M,33.5 ± 0.7%
O=C1NC(=O)C(=O)C(=O)N1 [alloxan],BUN,ICR mice [6],17.4 ± 3.7 mg/dL
same,MDA in blood,ICR mice [6],0.51 ± 0.07 µg/mL
same,MDA in renal tissue,ICR mice [6],13.24 ± 5.93 µg/g
same,Urinary test Bilirubin: count in category +,ICR mice [7],2
same,Urinary test Bilirubin: count in category ++,ICR mice [7],6
same,Urinary test Bilirubin: count in category +++,ICR mice [7],2
same,Urinary test Glucose: count in category ++,ICR mice [7],10
same,Urinary test Ketone: count in category ±,ICR mice [7],3
same,Urinary test Ketone: count in category −,ICR mice [7],7
same,Urinary test Nitrite: count in category +,ICR mice [7],4
same,Urinary test Nitrite: count in category −,ICR mice [7],6
same,Urinary test Occult blood: count in category ++,ICR mice [7],2
same,Urinary test Occult blood: count in category +++,ICR mice [7],8
same,Urinary test Protein: count in category −,ICR mice [7],10
same,Urinary test Specific gravity: count in category ++,ICR mice [7],1
same,Urinary test Specific gravity: count in category +++,ICR mice [7],9
same,Urinary test Urobilinogen: count in category +,ICR mice [7],10
same,Urinary test pH: count in category ±,ICR mice [7],10
